Laboratory results reported in patent US20260001928A1 (CORTERIA PHARMACEUTICALS, priority 2022, published 2026).
*1 amine or outer side, *2 acyl side, *3 side chain or, on linkers, in order; H or OH if unused. Where a SMILES comes first, the peptide text is derived from it. Side-chain parts run from the residue outwards. [ ]: non-standard residue; d: D form. The star is where a group is joined. C20 diacid = O=C(O)CCCCCCCCCCCCCCCCCCC(=O)*; C18 diacid = O=C(O)CCCCCCCCCCCCCCCCC(=O)*; γGlu = O=C(O)[C@H](CCC(=O)[*:2])N[*:1]; NMeI = CC[C@H](C)[C@H](NC)C(=O)O; AEEA = NCCOCCOCC(=O)O; Aib = CC(C)(N)C(=O)O

Legend:
CFR1R receptor = target: T1, CFR1R receptor (Homo sapiens, UniProt P34998); assay: Activity at anti-target CFR1R receptor, cAMP assay in CRF1R-overexpression CHO-K1 cells; format: cell-based; conditions: 100% = Sauvagine at 100 nM; for EC50: cAMP
T1 construct: host or cells: CHO-K1 (clone 2)
T1 sequence (P34998 24-415): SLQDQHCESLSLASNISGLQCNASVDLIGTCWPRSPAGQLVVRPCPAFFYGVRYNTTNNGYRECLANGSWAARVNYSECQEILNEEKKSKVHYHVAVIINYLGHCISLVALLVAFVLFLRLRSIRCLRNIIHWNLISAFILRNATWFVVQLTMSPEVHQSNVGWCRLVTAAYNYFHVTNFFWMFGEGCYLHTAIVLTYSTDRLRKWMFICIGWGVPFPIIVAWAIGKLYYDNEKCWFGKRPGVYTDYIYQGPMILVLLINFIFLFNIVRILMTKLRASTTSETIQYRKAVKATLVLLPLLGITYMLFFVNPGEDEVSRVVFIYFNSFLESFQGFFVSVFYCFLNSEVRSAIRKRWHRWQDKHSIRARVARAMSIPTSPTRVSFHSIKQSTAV
How it was run: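 Clone 2 cells were cultured in F12 (Hams)/10% FBS/400 μg/ml G418 at 37° C./5% CO2, frozen in medium with 10% DMSO, and thawed vials used. The protocol followed the TeloHAEC procedure, with 4000 cells/well final and Sauvagine at 100 nM defining 100% activation.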

human CRF2a receptor = target: T2, human CRF2a receptor (Homo sapiens, UniProt Q13324); assay: Activity at human CRF2a receptor, cAMP functional assay in TeloHEAC cells; format: cell-based; conditions: TeloHEAC cells stably expressing human CRF2a receptor, relative to urocortin 2 (100 nM = 100%)
T2 construct: expressed in transfected cells; host or cells: TeloHEAC cells
T2 sequence (Q13324 1-411): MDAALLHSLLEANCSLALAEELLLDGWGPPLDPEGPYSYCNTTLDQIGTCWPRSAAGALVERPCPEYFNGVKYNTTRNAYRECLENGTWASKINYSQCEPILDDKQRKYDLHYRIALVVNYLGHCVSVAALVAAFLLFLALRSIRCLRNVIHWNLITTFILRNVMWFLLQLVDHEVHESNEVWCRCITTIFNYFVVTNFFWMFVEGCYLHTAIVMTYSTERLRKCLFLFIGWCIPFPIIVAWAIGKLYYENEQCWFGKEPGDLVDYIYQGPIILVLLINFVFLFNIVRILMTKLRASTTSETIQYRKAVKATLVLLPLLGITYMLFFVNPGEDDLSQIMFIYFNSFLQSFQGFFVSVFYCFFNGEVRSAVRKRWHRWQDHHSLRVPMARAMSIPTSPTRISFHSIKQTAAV
How it was run: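 TeloHEAC cells stably expressing human CRF2a (10000 cells/well, suspended in HBSS/20 mM HEPES with 2 mM IBMX) were exposed to compounds for 30 min at 37 °C. cAMP was read as the 665/620 nm fluorescence ratio after 1 h at room temperature. EC50 was derived relative to 100 nM urocortin 2, set as 100%.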

[1] = Chemical stability in buffer (pH 7.4 / pH 4.5), % purity loss; format: physicochemical; conditions: 100 mM phosphate buffer pH 7.4; 40° C. vs 5° C.; 14 or 28 days
How it was run: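 Compounds dissolved at 10 mg/mL target in 100 mM phosphate (pH 7.4) or 100 mM acetate (pH 4.5) buffer for 1 h at room temperature, then centrifuged. Diluted supernatant stored at 5 °C or 40 °C for 14 or 28 days; % purity loss by LC-UV.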

[2] = Pharmacokinetics in male Sprague Dawley rats after subcutaneous administration; format: in vivo; conditions: plasma, rat, IV, 0.05 mg/kg
rat CRF2 a = target: T3, rat CRF2 a (Rattus norvegicus, UniProt P47866); assay: Activity at rat CRF2 a, cAMP assay in A7R5 rat aortic smooth muscle cells; format: cell-based; conditions: 0% HSA, 100% = Sauvagine at 100 nM
T3 construct: host or cells: A7R5 rat aortic smooth muscle cells
T3 sequence (P47866 27-431 isoform P47866-2 limits assumed): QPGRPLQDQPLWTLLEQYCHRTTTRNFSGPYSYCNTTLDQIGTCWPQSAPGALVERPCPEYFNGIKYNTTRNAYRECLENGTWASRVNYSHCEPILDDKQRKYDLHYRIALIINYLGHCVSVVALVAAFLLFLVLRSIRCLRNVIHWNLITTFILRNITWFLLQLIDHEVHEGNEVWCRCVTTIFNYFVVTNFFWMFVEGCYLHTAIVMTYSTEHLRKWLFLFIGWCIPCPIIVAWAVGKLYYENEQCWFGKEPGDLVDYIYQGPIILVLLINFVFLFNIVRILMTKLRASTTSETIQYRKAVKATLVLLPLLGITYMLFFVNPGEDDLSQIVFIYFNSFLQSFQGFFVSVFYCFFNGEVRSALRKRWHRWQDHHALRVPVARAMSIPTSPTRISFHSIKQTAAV
Method: The A7R5 rat aortic smooth muscle cell line used in this study was purchased from ATCC.
Cells were grown in a 10 cm dish at 37° C./5% CO2 in medium (DMEM/10% FBS) to near confluence. At that stage, cells were harvested, resuspended to 10 million/mL in culture medium and with 5% DMSO. 1 mL vial aliquots were slowly frozen to −80° C. in isopropanol and then transferred in liquid nitrogen for storage.
These vials were used to run the experiment following the procedure reported in the previous paragraph, except for the compound used in the control well to define the 100% activation (Sauvagine at 100 nM) and the cell density (final cell density: 5000 cells/well).

[3] = In vitro subcutaneous tissue supernatant (SCts) stability and metabolite identification, rat; format: in vitro ADME; design: remaining at 2 h: dose or concentration left out as unconfirmed; conditions: male, Sprague Dawley; rat subcutaneous tissue supernatant (SCts), 37° C, 2 h
[4] = Pharmacokinetics in male Sprague Dawley rats after subcutaneous administration; format: in vivo; conditions: plasma, rat, SC, 0.05 mg/kg
Sprague Dawley rats = assay: Effect on systolic blood pressure, telemetry in Sprague Dawley rats; format: in vivo, rat; conditions: 0.1 mg/kg SC
How it was run: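 Sprague Dawley rats with abdominal-aorta telemetry catheters, recovered ≥10 days, received 0.1 mg/kg SC of compound or vehicle. Systolic pressure recorded 1 h pre-dose as baseline, then continuously up to 48 hours, expressed as % change from baseline; duration of action is last time point with a BP effect (n=2).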

Compound	Emax (% I) (CFR1R receptor)	EC50 (CFR1R receptor) [nM]	EC50 (human CRF2a receptor) [nM]	Buffer stability pH 7.4 % purity loss [1]	AUC(0-t) [2] [ng·h/mL]	half-life [2] [min]	EC50 (rat CRF2 a) [nM]	remaining at 2 h [3] [%]	AUC(0-t) [4] [ng·h/mL]	Cmax [4] [ng/mL]	Tmax [4] [h]	half-life [4] [min]	Systolic blood pressure (Mean) % change from baseline, 8 h (Sprague Dawley rats; 8 h, n=2) [%]	Systolic blood pressure (Mean) % change from baseline, 12 h (Sprague Dawley rats; 12 h, n=2) [%]	Systolic blood pressure (Mean) % change from baseline, 24 h (Sprague Dawley rats; 24 h, n=2) [%]	Duration of action (Sprague Dawley rats; last time point with an effect on BP still observed) [h]
CC[C@H](C)[C@H](NC)C(=O)N[C@H](C(=O)N[C@@H](CC(C)C)C(=O)N[C@@H](CO)C(=O)N[C@@H](CC(C)C)C(=O)N[C@@H](CC(=O)O)C(=O)N[C@@H](C(=O)N1CCC[C@H]1C(=O)N[C@H](C(=O)N[C@@H](CCCCN)C(=O)N[C@@H](CC(C)C)C(=O)N[C@@H](CCCCNC(=O)CC[C@H](NC(=O)CC[C@H](NC(=O)CCCCCCCCCCCCCCCCCCC(=O)O)C(=O)O)C(=O)O)C(=O)N[C@@H](CCCCN)C(=O)N[C@H](C(=O)N[C@@H](CC(C)C)C(=O)N[C@@H](CC(C)C)C(=O)N[C@@H](CCC(=O)O)C(=O)N[C@@H](CCC(N)=O)C(=O)N[C@@H](CCC(=O)O)C(=O)N[C@@H](CCCCN)C(=O)N[C@@H](CCC(N)=O)C(=O)N[C@@H](CCCCN)C(=O)N[C@@H](CCC(=O)O)C(=O)N[C@@H](CCC(N)=O)C(=O)N[C@@H](CCCNC(=N)N)C(=O)N[C@@H](CCC(=O)O)C(=O)N[C@@H](CCC(N)=O)C(=O)N[C@@H](C)C(=O)N[C@@H](CCC(=O)O)C(=O)N[C@H](C(=O)N[C@@H](CC(N)=O)C(=O)NC(C)(C)C(=O)N[C@@H](CCC(N)=O)C(=O)N[C@H](C(=O)N[C@@H](CC(C)C)C(=O)N[C@@H](C)C(=O)N[C@@H](CCC(N)=O)C(=O)N[C@H](C(N)=O)C(C)C)[C@@H](C)CC)[C@@H](C)O)[C@@H](C)CC)[C@@H](C)CC)C(C)C)C(C)C [compound 242] (H-[NMeI]VLSLD[dV]PIKLK([γGlu-γGlu-C20 diacid])KILLEQEKQKEQREQAETN[Aib]QILAQV-NH2)	6	> 250	0.22	0.0/Not Tested %	7970	840	0.4	68								
CC[C@H](C)[C@H](NC)C(=O)N[C@H](C(=O)N[C@@H](CC(C)C)C(=O)N[C@@H](CO)C(=O)N[C@@H](CC(C)C)C(=O)N[C@@H](CC(=O)O)C(=O)N[C@@H](C(=O)N1CCC[C@H]1C(=O)N[C@H](C(=O)N[C@@H](CCCCN)C(=O)N[C@@H](CC(C)C)C(=O)N[C@@H](CCCCNC(=O)CC[C@H](NC(=O)CCCCCCCCCCCCCCCCC(=O)O)C(=O)O)C(=O)N[C@@H](CCCCN)C(=O)N[C@H](C(=O)N[C@@H](CC(C)C)C(=O)N[C@@H](CC(C)C)C(=O)N[C@@H](CCC(=O)O)C(=O)N[C@@H](CCC(N)=O)C(=O)N[C@@H](CCC(=O)O)C(=O)N[C@@H](CCCCN)C(=O)N[C@@H](CCC(N)=O)C(=O)N[C@@H](CCCCN)C(=O)N[C@@H](C)C(=O)N[C@@H](CCC(N)=O)C(=O)N[C@@H](CCCNC(=N)N)C(=O)N[C@@H](CCC(=O)O)C(=O)N[C@@H](CCC(N)=O)C(=O)N[C@@H](C)C(=O)N[C@@H](CCC(=O)O)C(=O)N[C@H](C(=O)N[C@@H](CC(N)=O)C(=O)NC(C)(C)C(=O)N[C@@H](CCC(N)=O)C(=O)N[C@H](C(=O)N[C@@H](CC(C)C)C(=O)N[C@@H](C)C(=O)N[C@@H](CCC(N)=O)C(=O)N[C@H](C(N)=O)C(C)C)[C@@H](C)CC)[C@@H](C)O)[C@@H](C)CC)[C@@H](C)CC)C(C)C)C(C)C [compound 144] (H-[NMeI]VLSLD[dV]PIKLK([γGlu-C18 diacid])KILLEQEKQKAQREQAETN[Aib]QILAQV-NH2)				0.0/Not Tested %			0.06	74	1710	105	6	756	−22	−17	1	23
CC[C@H](C)[C@H](NC(C)=O)C(=O)N[C@H](C(=O)N[C@@H](CC(C)C)C(=O)N[C@@H](CO)C(=O)N[C@@H](CC(C)C)C(=O)N[C@@H](CC(=O)O)C(=O)N[C@@H](C(=O)N1CCC[C@H]1C(=O)N[C@H](C(=O)N[C@@H](CCCCN)C(=O)N[C@@H](CC(C)C)C(=O)N[C@@H](CCCCNC(=O)COCCOCCNC(=O)CC[C@H](NC(=O)CCCCCCCCCCCCCCCCCCC(=O)O)C(=O)O)C(=O)N[C@@H](CCCCN)C(=O)N[C@H](C(=O)N[C@@H](CC(C)C)C(=O)N[C@@H](CC(C)C)C(=O)N[C@@H](CCC(=O)O)C(=O)N[C@@H](CCC(N)=O)C(=O)N[C@@H](CCC(=O)O)C(=O)N[C@@H](CCCCN)C(=O)N[C@@H](CCC(N)=O)C(=O)N[C@@H](CCCCN)C(=O)N[C@@H](C)C(=O)N[C@@H](CCC(N)=O)C(=O)N[C@@H](CCCNC(=N)N)C(=O)N[C@@H](CCC(=O)O)C(=O)N[C@@H](CCC(N)=O)C(=O)N[C@@H](C)C(=O)N[C@@H](CCC(=O)O)C(=O)N[C@H](C(=O)N[C@@H](CC(N)=O)C(=O)NC(C)(C)C(=O)N[C@@H](CCC(N)=O)C(=O)N[C@H](C(=O)N[C@@H](CC(C)C)C(=O)N[C@@H](C)C(=O)N[C@@H](CCC(N)=O)C(=O)N[C@H](C(N)=O)C(C)C)[C@@H](C)CC)[C@@H](C)O)[C@@H](C)CC)[C@@H](C)CC)C(C)C)C(C)C [compound 232] (Ac-IVLSLD[dV]PIKLK([AEEA-γGlu-C20 diacid])KILLEQEKQKAQREQAETN[Aib]QILAQV-NH2)	13	> 250	0.12				0.4									
